Results as given in ChEMBL document CHEMBL4043292, “Discovery and Optimization of Phosphopantetheine Adenylyltransferase Inhibitors with Gram-Negative Antibacterial Activity” (J Med Chem, 2018).
Values after ≈ are worked out from the molar mass of the structure shown.

Tests used:
in vitro [1] = conditions: human, Caco-2
Description: Efflux ratio of apparent permeability across basolateral to apical over apical to basolateral side in human Caco2 cells

Escherichia coli [2] = assay: microbe, parasite or virus in culture; conditions: JW5503-1, 20 h
Description: Antibacterial activity against tolC deficient Escherichia coli JW5503-1 after 20 hrs by broth microdilution method

Escherichia coli [3] = assay: microbe, parasite or virus in culture; conditions: JW0451-2, 20 h
Description: Antibacterial activity against acrB deficient Escherichia coli JW0451-2 after 20 hrs by broth microdilution method

in vitro [4] = conditions: human, not told
Description: Efflux ratio in human microsomes

Escherichia coli [5] = assay: microbe, parasite or virus in culture; conditions: RFM795, 20 h
Description: Antibacterial activity Escherichia coli RFM795 harboring frame deletion of 23 amino acids in lptD gene after 20 hrs by broth microdilution method

Pseudomonas aeruginosa [6] = assay: microbe, parasite or virus in culture; conditions: K1119, 20 h
Description: Antibacterial activity against mexAB deficient Pseudomonas aeruginosa K1119 after 20 hrs by broth microdilution method

physchem [7] = conditions: buffer, pH 7.4
Description: Lipophilicity, log D of the compound at pH 7.4

Pseudomonas aeruginosa [8] = assay: microbe, parasite or virus in culture; conditions: PAO1, 20 h
Description: Antibacterial activity against Pseudomonas aeruginosa PAO1 after 20 hrs by broth microdilution method

[9] = target: T1, Bifunctional coenzyme A synthase (Homo sapiens) (UniProt Q13057)
T1 sequence (whole entry): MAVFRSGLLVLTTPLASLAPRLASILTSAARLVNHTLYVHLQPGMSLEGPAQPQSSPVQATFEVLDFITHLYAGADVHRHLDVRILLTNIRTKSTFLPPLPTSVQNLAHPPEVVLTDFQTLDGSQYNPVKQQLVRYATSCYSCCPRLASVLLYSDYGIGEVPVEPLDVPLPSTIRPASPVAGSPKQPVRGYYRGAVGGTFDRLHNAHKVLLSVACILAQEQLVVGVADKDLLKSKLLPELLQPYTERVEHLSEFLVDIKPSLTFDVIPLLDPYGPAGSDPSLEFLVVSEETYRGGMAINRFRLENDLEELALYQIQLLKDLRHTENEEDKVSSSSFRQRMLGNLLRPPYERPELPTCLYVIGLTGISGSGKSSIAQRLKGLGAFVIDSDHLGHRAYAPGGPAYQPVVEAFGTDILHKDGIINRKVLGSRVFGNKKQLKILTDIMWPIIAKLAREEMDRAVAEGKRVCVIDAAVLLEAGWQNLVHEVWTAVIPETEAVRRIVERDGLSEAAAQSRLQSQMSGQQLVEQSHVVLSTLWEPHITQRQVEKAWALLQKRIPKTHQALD
Description: Inhibition of human coaSY expressed in tolC deficient Escherichia coli JWK0002 assessed as bacterial growth inhibition after 20 hrs by broth microdilution method

physchem [10] = conditions: PBS
Description: Solubility of the compound in PBS

in vitro [11] = conditions: human, Caco-2; remark: listed apart in the source
Escherichia coli [12] = assay: microbe, parasite or virus in culture; conditions: BW25113, 20 h
Description: Antibacterial activity against Escherichia coli BW25113 after 20 hrs by broth microdilution method

Escherichia coli [13] = assay: Ratio of IC50 for PPAT in Escherichia coli BW25113 assessed as reduction in level of CoA-SH metabolite to IC50 for PPAT in tolC deficient Escherichia coli JW5503-1 assessed as reduction in level of CoA-SH metabolite
[14] = Inhibition of PPAT in Escherichia coli BW25113 assessed as reduction in level of CoA-SH metabolite by mass spectrometric method
Pseudomonas aeruginosa [15] = assay: microbe, parasite or virus in culture; conditions: ATCC 35151, 20 h
Description: Antibacterial activity against Pseudomonas aeruginosa ATCC 35151 after 20 hrs by broth microdilution method

[16] = Inhibition of PPAT in tolC deficient Escherichia coli JW5503-1 assessed as reduction in level of CoA-SH metabolite by mass spectrometric method

Row | Structure (SMILES) | efflux ratio (in vitro [1]) | MIC (Escherichia coli [2]) | MIC (Escherichia coli [3]) | efflux ratio (in vitro [4]) | MIC (Escherichia coli [5]) | MIC (Pseudomonas aeruginosa [6]) | logD (physchem [7]) | MIC (Pseudomonas aeruginosa [8]) | MIC [9] | solubility (physchem [10]) | Papp A→B (in vitro [11]) | MIC (Escherichia coli [12]) | Ratio IC50 (Escherichia coli [13]) | IC50 [14] | MIC (Pseudomonas aeruginosa [15]) | IC50 [16]
1 | COC(=O)N1CCC(Cc2cccc([C@@H](CC#N)Nc3nc4nc(C)ccc4[nH]3)c2)CC1 | 18 | ≤ 0.125 µg/mL | 16 µg/mL (≈ 37 µM) | 0.77 | 2 µg/mL (≈ 4.62 µM) | 32 µg/mL (≈ 74 µM) | 2.8 | > 128 µg/mL | 128 µg/mL (≈ 296 µM) | 158 µg/mL (≈ 365 µM) | 2.3 ×10⁻⁶ cm/s | 128 µg/mL (≈ 296 µM) |  |  |  | 
2 | COC(=O)N1CCC(Oc2cccc([C@@H](CC#N)Nc3nc4nc(C)ccc4[nH]3)c2)CC1 | 48 | 0.25 µg/mL (≈ 0.575 µM) | 32 µg/mL (≈ 73.6 µM) | 0.44 | 8 µg/mL (≈ 18.4 µM) | 128 µg/mL (≈ 295 µM) | 3 | > 128 µg/mL | > 128 µg/mL | 264 µg/mL (≈ 608 µM) | 1 ×10⁻⁶ cm/s | > 128 µg/mL | 500 | 11.9 µM | 128 µg/mL (≈ 295 µM) | 24 nM
